Experimental data reported in article PMC10160035, “Mechanism-based and computational modeling of hydrogen sulfide biogenesis inhibition: interfacial inhibition” (Scientific Reports, 2023).
Each block holds one molecule with its values, some of them ahead of it.

Key:
CSE = conditions: cited from earlier work
[1] = target: T1, human CSE (cystathionine γ-lyase) (Homo sapiens, UniProt P32929)
[2] = target: T1, human CSE (cystathionine γ-lyase); test: biochemical
[3] = target: T1, human CSE (cystathionine γ-lyase); test: lead acetate assay of H2S production from cysteine; type: biochemical; design: 6xHis (TEV-cleavable) (N, cleaved yes); made in house; host or cells: E. coli One Shot BL-21 Star (DE3)
Method: Production of H2S from cysteine by CSE was measured spectrophotometrically by the lead acetate assay as previously described. […] Then, the formation of lead sulfide resulting from the reactivity of H2S with lead acetate was continuously monitored at 390 nm. The half inhibitory concentration (IC50) value was obtained by plotting the relative activity of CSE (A, in per cent) as a function of the concentration of D-pen and by fitting the data with Eq. (4), where ∆A is the maximal effect of D-pen on the activity of CSE and n is the Hillslope that characterizes the slope of the curve at its midpoint.4 A=ΔA/1+[D-Pen]/IC50^n
Next, 40 μg of CSE was added to the assay mixture to initiate the reaction, which was followed at 390 nm. The molar extinction coefficient for lead sulfide previously determined was then used to obtain vH2S[24]. The CSE-D-penicillamine dissociation constants for competitive and uncompetitive inhibition were calculated by plotting vH2S as a function of cysteine concentration and using Eq. (5).5 vH2S=Vmax×[Cys]/KM×1+[D-Pen]/Kic+[Cys]×1+[D-Pen]/Kiu

[4] = system: homogenated mouse aorta samples; design: method as in Brancaleone et al. (34); conditions: ref Brancaleone et al. (34), read-out: IC50 ex cellulo; cited from earlier work
[5] = system: recombinant CSE (GST-CSE); conditions: 1 mM Cys, methylene blue assay, 10 min pre-incubation with CSE; read-out: IC50 towards H2S production; cited from earlier work
[6] = target: T2, recombinant human CSE (cystathionine γ-lyase), tag-less (Homo sapiens, UniProt P32929); test: D-penicillamine binding followed by PLP fluorescence quenching; conditions: PLP fluorescence at 495 nm, 100 mM HEPES pH 7.4, 20 °C, n = 3 ± SD; read-out: Kd (dissociation constant between tag-less CSE and D-pen)
T2 construct: 6xHis (TEV-cleavable) (N, cleaved yes); made in house; host or cells: E. coli One Shot BL-21 Star (DE3)
Method: The addition of D-pen induced a quenching of fluorescence. […] The black line represents the fit to the experimental data with a four-parameter logistic equation to obtain the dissociation binding constant of D-pen for CSE.
Fluorescence emission spectra were recorded 5 min after D-pen addition.

[7] = target: the molecule itself; test: SEC; HiLoad 16/600 Superdex 200, 0.5 mL/min, 100 mM HEPES pH 7.4, 150 mM NaCl; oligomeric state from the estimated apparent molecular mass

T1 sequence (P32929 whole entry): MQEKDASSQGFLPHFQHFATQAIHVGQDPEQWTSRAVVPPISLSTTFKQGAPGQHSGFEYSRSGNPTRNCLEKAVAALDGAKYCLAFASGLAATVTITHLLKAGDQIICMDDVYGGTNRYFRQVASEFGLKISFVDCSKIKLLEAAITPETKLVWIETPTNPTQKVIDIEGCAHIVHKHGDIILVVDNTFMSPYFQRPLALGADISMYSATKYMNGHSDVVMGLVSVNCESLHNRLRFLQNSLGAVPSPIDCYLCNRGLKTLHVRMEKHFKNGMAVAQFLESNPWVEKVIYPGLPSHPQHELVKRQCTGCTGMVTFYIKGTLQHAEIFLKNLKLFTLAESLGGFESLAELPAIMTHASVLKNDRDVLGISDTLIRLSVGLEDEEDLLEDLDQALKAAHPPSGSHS
T2 sequence (P32929 whole entry): as above

Molecule: C#CCC(N)C(=O)O (stereo not shown) [propargylglycine]
inhibitory mode towards CSE (CSE): suicide inhibitors

Molecule: N[C@H](C(=O)O)C(F)(F)F [trifluoroalanine]
inhibitory mode towards CSE (CSE): suicide inhibitors

Molecule: N[C@@H](CSCCCC(=O)O)C(=O)O [S-3-carboxypropyl-L-cysteine]
inhibitory mode towards CSE (CSE): suicide inhibitors

Kiu (uncompetitive inhibition), α,γ-elimination of cystathionine ([1]; 0.1–3 mM cystathionine, 100 mM HEPES pH 7.4, 37 °C): 8.55 ± 0.89 mM
mode of inhibition of cystathionine cleavage ([1]; Lineweaver–Burk analysis): mixed inhibition mechanism
Ki [2]: 2540 ± 650 µM
IC50 ([3]; 1 mM Cys, 200 mM HEPES pH 7.4, 37 °C, no pre-incubation with enzyme, read-out: IC50 towards H2S production): 2040 ± 130 µM
Kiu (dissociation constant for uncompetitive inhibition), H2S biogenesis from Cys ([3]; 1–10 mM cysteine, 100 mM HEPES pH 7.4, 37 °C): 8.60 ± 1.22 mM
Ki ([3]; 1–10 mM cysteine, 100 mM HEPES pH 7.4, 37 °C, read-out: Kic (dissociation constant for competitive inhibition), H2S biogenesis from Cys): 1820 ± 350 µM
mode of inhibition of H2S biogenesis ([3]; Lineweaver–Burk analysis, varying Cys): mixed inhibition mechanism
effect of pre-incubation time on inhibition potency ([3]; inhibition followed as a function of pre-incubating time): not a slow-binding inhibitor
Kd [6]: 15000 ± 4600 µM
Molecule: CC(C)(S)[C@@H](N)C(=O)O [D-pen, D-penicillamine]
IC50 [4]: 44 µM
IC50 [5]: 270 µM

Molecule: O=C(O)C1=CC(=C(c2ccc(O)c(C(=O)O)c2)c2ccc(O)c(C(=O)O)c2)C=CC1=O [aurintricarboxylic acid]
inhibitory mode towards CSE (CSE): competitive cofactor

Molecule: C#CCNC(=O)[C@@H]1CSC(=O)N1 [(R)-2-oxo-N-(prop-2-yn-1-yl)thiazolidine-4-carboxamide]
inhibitory mode towards CSE (CSE): substrate inhibitors

Molecule: NCCO/C=C/[C@H](N)C(=O)O [aminoethoxyvinyglycine]
inhibitory mode towards CSE (CSE): slow and tight binding inhibitor

B1: human recombinant cystathionine γ-lyase with N-terminal 6xHis-tag (enzyme)
chain: MQEKDASSQGFLPHFQHFATQAIHVGQDPEQWTSRAVVPPISLSTTFKQGAPGQHSGFEYSRSGNPTRNCLEKAVAALDGAKYCLAFASGLAATVTITHLLKAGDQIICMDDVYGGTNRYFRQVASEFGLKISFVDCSKIKLLEAAITPETKLVWIETPTNPTQKVIDIEGCAHIVHKHGDIILVVDNTFMSPYFQRPLALGADISMYSATKYMNGHSDVVMGLVSVNCESLHNRLRFLQNSLGAVPSPIDCYLCNRGLKTLHVRMEKHFKNGMAVAQFLESNPWVEKVIYPGLPSHPQHELVKRQCTGCTGMVTFYIKGTLQHAEIFLKNLKLFTLAESLGGFESLAELPAIMTHASVLKNDRDVLGISDTLIRLSVGLEDEEDLLEDLDQALKAAHPPSG
modifications: pyridoxal 5'-phosphate as internal aldimine with Lys212
notes: cystathionine γ-lyase (CSE), human; also called CSE; hCSE; source: E. coli One Shot BL-21 Star (DE3), purified (His-Trap HP, HiLoad 16/600 Superdex 200); not shown: His6, N-terminal, kept
stoichiometry N [7]: 4

B2: tag-less human recombinant cystathionine γ-lyase (enzyme)
chain: MQEKDASSQGFLPHFQHFATQAIHVGQDPEQWTSRAVVPPISLSTTFKQGAPGQHSGFEYSRSGNPTRNCLEKAVAALDGAKYCLAFASGLAATVTITHLLKAGDQIICMDDVYGGTNRYFRQVASEFGLKISFVDCSKIKLLEAAITPETKLVWIETPTNPTQKVIDIEGCAHIVHKHGDIILVVDNTFMSPYFQRPLALGADISMYSATKYMNGHSDVVMGLVSVNCESLHNRLRFLQNSLGAVPSPIDCYLCNRGLKTLHVRMEKHFKNGMAVAQFLESNPWVEKVIYPGLPSHPQHELVKRQCTGCTGMVTFYIKGTLQHAEIFLKNLKLFTLAESLGGFESLAELPAIMTHASVLKNDRDVLGISDTLIRLSVGLEDEEDLLEDLDQALKAAHPPSG
modifications: pyridoxal 5'-phosphate as internal aldimine with Lys212
notes: cystathionine γ-lyase (CSE), human; tag removed with TEV protease; also called tag-less CSE; CSE; not shown: His6, N-terminal, cleaved
stoichiometry N [7]: 4
